Results published in PMC10223608, “Structural Congeners of Izenamides Responsible for Cathepsin D Inhibition: Insights from Synthesis-Derived Elucidation” (Marine Drugs, 2023).

Experiments:
Human liver cathepsin D = molecular target: T1, Human liver cathepsin D (Homo sapiens, UniProt P07339); assay: Cathepsin D (CTSD) human pepsin aspartic peptidase enzymatic assay (Eurofins Panlabs); assay type: biochemical; conditions: for Inhibition of CTSD (%): 190 mU/mL enzyme, modified acetate buffer pH 4.0, 15 min preincubation at 37 °C, 20 μM MOCAc substrate for 10 min, spectrofluorimetric read-out, duplicate, N.A. = not active
T1 construct: tissue Eurofins Panlabs Discovery Services (ran the assay); host or cells: human liver
Description: The CTSD-inhibition assay was performed at Eurofins Panlabs Discovery Services by measuring the percentage inhibition at concentrations of 0.5 and 1.0 μM (Table 1).
Human liver cathepsin D was used for the enzymatic essay. Test compound or vehicle was preincubated with 190 mU/mL enzyme in modified acetate buffer pH 4.0 for 15 minutes at 37 °C. The reaction was initiated by addition of 20 μM MOCAc-[…]Dnp)-D-Arg NH2 for another 10-minute incubation period. Determination of the amount of MOCAc formed was read spectrofluorimetrically at 340 nm/400. Compounds were screened at 0.5 and 1.0 μM. Cathepsin-D-Human-Pepsin-Aspartic-Peptidase-Enzymatic-Assay-Panlabs (eurofinsdiscovery.com, accessed on 22 February 2022).

CTSD = conditions: natural izenamides; cited from earlier work
From the text: In 2018, izenamides A-C (1–3), which are linear depsipeptides, were first isolated from the marine cyanobacterium 1605-5 by Suenaga et al (Figure 1). Izenamides A (1) and B (2) contain four amino acids (Pro-O-Me, N-Me-Phe, Ala, and Ile); two α-hydroxy acids (two valic acids for 1, and one valic acid and one isoleucic acid for 2); and a γ-amino-β-hydroxy acid moiety known as statine [(3S,4S)-4-amino-3-hydroxy-6-methylheptanoic acid, Sta]. Izenamide C (3) also contains Pro-O-Me, N-Me-Phe, Ile, and valic acid; however, it contains Gly in place of Ala in 1 and 2, as well as isoleucic acid. ...

T1 sequence (P07339 65-412): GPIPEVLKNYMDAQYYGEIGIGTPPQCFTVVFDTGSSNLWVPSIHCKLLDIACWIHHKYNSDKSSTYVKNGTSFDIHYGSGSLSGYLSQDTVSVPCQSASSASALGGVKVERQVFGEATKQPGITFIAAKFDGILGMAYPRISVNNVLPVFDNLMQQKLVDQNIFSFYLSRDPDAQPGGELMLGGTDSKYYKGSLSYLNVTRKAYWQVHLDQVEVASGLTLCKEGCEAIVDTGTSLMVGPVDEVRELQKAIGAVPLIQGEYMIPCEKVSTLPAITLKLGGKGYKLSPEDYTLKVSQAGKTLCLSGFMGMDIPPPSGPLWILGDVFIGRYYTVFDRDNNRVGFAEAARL

Substance	Inhibition of CTSD (%) (Human liver cathepsin D; 0.5 μM compound)	Inhibition of CTSD (%) (Human liver cathepsin D; 1.0 μM compound)	CTSD-inhibitory activity (in words) (Human liver cathepsin D; screened at 0.5 and 1.0 μM)	inhibitory activities against CTSD in vitro (in words) (CTSD)
Sta-incorporated-izenamide C [Compound 7]	26.99	36.07	–	–
izenamide A [Compound 1]	10.13	15.55	–	moderate inhibitory activities

Now from value to substance, other results behind:

Inhibition of CTSD (%) (Human liver cathepsin D; 0.5 μM compound)	Inhibition of CTSD (%) (Human liver cathepsin D; 1.0 μM compound)	CTSD-inhibitory activity (in words) (Human liver cathepsin D; screened at 0.5 and 1.0 μM)	Substance	inhibitory activities against CTSD in vitro (in words) (CTSD)
37.29	40.96	–	18-epi-izenamide B [Compound 8]	–
8.12	14.76	–	izenamide B [Compound 2]	moderate inhibitory activities
–	–	no CTSD inhibition	izenamide C [Compound 3]	does not show CTSD inhibition
